Measured values: publication PMC9311798, “A Novel Class of Potent Anti-Tyrosinase Compounds with Antioxidant Activity, 2-(Substituted phenyl)-5-(trifluoromethyl)benzo[d]thiazoles: In Vitro and In Silico Insights” (Antioxidants, 2022)
Entries after “also recorded” stand apart in the source; their conditions may differ.

How the values were obtained:
[1] = target: T1, mushroom tyrosinase (Agaricus bisporus, UniProt C7FF04); test: Mushroom tyrosinase inhibition assay; assay type: biochemical; details: L-DOPA as substrate
T1 construct: purchased Sigma-Aldrich
Target sequence in this assay (C7FF04 1-392 limits assumed): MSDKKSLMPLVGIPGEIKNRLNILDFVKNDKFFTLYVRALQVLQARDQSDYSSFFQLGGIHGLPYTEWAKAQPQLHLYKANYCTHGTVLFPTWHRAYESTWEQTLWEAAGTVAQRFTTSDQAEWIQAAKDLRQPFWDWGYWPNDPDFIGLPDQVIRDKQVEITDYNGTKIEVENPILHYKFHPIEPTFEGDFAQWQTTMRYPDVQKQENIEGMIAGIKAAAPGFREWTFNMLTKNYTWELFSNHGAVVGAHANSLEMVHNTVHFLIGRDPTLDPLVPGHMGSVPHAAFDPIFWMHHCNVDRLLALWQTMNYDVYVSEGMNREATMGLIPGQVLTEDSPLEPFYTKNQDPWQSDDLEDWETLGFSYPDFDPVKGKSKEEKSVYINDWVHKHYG

[2] = tested on: B16F10 murine melanoma cells; test: Extracellular melanin content (melanin release into medium) in α-MSH/IBMX-stimulated cells; assay type: cell-based
Procedure: The anti-melanogenic activities of 1a and 1b were determined using a standard melanin content assay, with minor changes. Briefly, B16F10 cells were seeded in the wells of a 6-well plate at a density of 1 × 10^5 cells/well, and allowed to adhere to well bottoms over 24 h under the conditions used for cell culture (Section 2.3.5). […] Absorbances of culture media at 405 nm were used to determine extracellular melanin contents.

[3] = target: T1, mushroom tyrosinase; test: Kinetic studies on the inhibition of mushroom tyrosinase (Lineweaver–Burk and Dixon plots); assay type: biochemical; details: for Inhibition type: Lineweaver–Burk plots; for Ki: Dixon plot; for Vmax: regardless of 1b concentration
Procedure: Lineweaver–Burk plots of compound 1b were acquired in the presence of L-tyrosine or L-DOPA as substrates. In brief, 10 µL aliquots of DMSO containing compound 1b (final concentrations: 0, 0.1, 0.2, or 0.4 µM in L-tyrosine, and 0, 1, 2, or 4 μM in L-DOPA) were added to the wells of a 96-well plate containing 170 µL of an aqueous solution (final concentrations: 1.0, 2.0, 4.0, 8.0, or 16.0 mM) of L-tyrosine or L-DOPA, sodium phosphate buffer (final concentration: 14.7 mM, pH 6.5), and 20 µL of mushroom tyrosinase (200 units/mL). Initial rates of dopachrome production were determined by measuring the increases in optical density at 475 nm (ΔOD475/min) using a microplate reader (VersaMax^TM, Molecular Devices, Sunnyvale, CA, USA). Maximal velocity (Vmax) was obtained from Lineweaver–Burk plots obtained using five different L-tyrosine or L-DOPA concentrations. Modes of tyrosinase inhibition were determined using plot convergence points.
Target sequence in this assay (C7FF04 1-392): as the sequence (C7FF04 1-392 limits assumed) above

[4] = ABTS radical scavenging activity assay; details: 100 µM, 2 min in the dark
Procedure: At 734 nm, optical densities of the solutions were measured using a microplate reader (VersaMax^TM, Molecular Devices, Sunnyvale, CA, USA). The ABTS radical scavenging capacities of the 16 2-arylbenzothiazole derivatives were compared with trolox. All experiments were performed independently in triplicate.

[5] = tested on: B16F10 murine melanoma cells; test: B16F10 cell viability assay (EZ-Cytox); assay type: cell-based; details: concentrations ≤20 μM, 48 h
Procedure: B16F10 murine melanoma cells were obtained from the American Type Culture Collection (ATCC, Manassas, VA, USA). Phosphate buffer solution (PBS), Dulbecco’s modified Eagle’s medium (DMEM), streptomycin, penicillin, trypsin, and fetal bovine serum (FBS) were purchased from Gibco/Thermo Fisher Scientific (Carlsbad, CA, USA). B16F10 cells were cultured in a DMEM solution comprising 10% heat-inactivated FBS, penicillin (100 IU/mL), and streptomycin (100 µg/mL), at 37 °C in a humidified 5% CO2 atmosphere. Experiments for anti-melanogenesis activity, cell viability, and anti-tyrosinase activity were assayed on these cells in 96- or 6-well culture plates.
Cell viability assays for B16F10 were performed using the EZ-Cytox assay (EZ-3000, DoGenBio, Seoul, Korea). In brief, B16F10 cells were seeded in a 96-well plate at a density of 1 × 10^4 cells/well, and cultured at 37 °C for 24 h in a humidified 5% CO2 atmosphere. The next day, B16F10 cells were exposed to six concentrations of 1a or 1b (0, 1, 2, 5, 10, or 20 μM), and incubated under the same conditions for 48 h. Then, the EZ-Cytox solution (10 μL) was added to each well, and the cells mixed with the EZ-Cytox solution were further incubated for 2 h. At 450 nm, optical densities were measured using a microplate reader (VersaMax^TM, Molecular Devices, Sunnyvale, CA, USA).

[6] = tested on: TRP-1, TRP-2, and tyrosinase mRNA in B16F10 cells; test: qRT-PCR of melanogenesis-related genes; assay type: cell-based, murine; details: 24 h; GAPDH internal control; versus untreated controls
Procedure: Total RNAs from cells were extracted using the RiboEx Total RNA solution (GeneAll Biotechnology, Seoul, Korea). Cells in 6-well plates (0.5 mL, 1 × 10^5 cells per well) were transferred to tubes, to which chloroform (0.1 mL) was added, and shaken vigorously for 30 s. Aqueous phases were transferred to fresh tubes, and an equal volume of isopropanol was added. Samples were then incubated for 15 min at 4 °C and centrifuged at 12,000× g for 15 min at 4 °C. After discarding the supernatants, RNA pellets were washed once with 0.5 mL of 75% ethanol, vortexed briefly, and centrifuged at 7500× g for 5 min at 4 °C. Pellets were dried for 10–15 min and dissolved in diethyl pyrocarbonate (DEPC)-treated water. Complementary DNA (cDNA) was synthesized from the total RNA (2 µg) using SuPrime Script RT Premix with random hexamer cDNA Synthesis Kit (GeNet Bio, Daejeon, Korea), in accordance with the manufacturers’ instructions. Quantitative qRT-PCR amplification was performed using SensiFAST^TM SYBR® No-ROX dye (Bioline, London, UK) on the CFX Connect System (Bio-Rad Laboratories, Hercules, CA, USA). The primers specific to TRP-1, TRP-2, tyrosinase, or GAPDH were purchased from Bioneer Inc. (Daejeon, Korea). Relative gene expressions were assessed using GAPDH as the internal control.

[7] = tested on: B16F10 murine melanoma cells; test: Intracellular melanin content in α-MSH/IBMX-stimulated cells; assay type: cell-based
Procedure: The cultured cells were rinsed with PBS twice and pellets were dissolved in 200 µL of 1N-NaOH solution containing 10% DMSO for 1 h at 60 °C. Cell lysates were then transferred to a 96-well plate, and the melanin absorbances were measured in aqueous DMSO at 405 nm using a microplate reader (VersaMax^TM, Molecular Devices, Sunnyvale, CA, USA).

## Oc1ccc(-c2nc3cc(C(F)(F)F)ccc3s2)c(O)c1 [Compound 1b, 4-(5-(Trifluoromethyl)benzo[d]thiazol-2-yl)benzene-1,3-diol]
[1]
  IC50: 1.7 ± 0.11 µM
[2]; 20 µM
  melanin release: reduced melanin release to control levels
[2]; 5, 10, 20 µM, α-MSH (1 µM) + IBMX (200 µM), 48 h
  effect on melanin content in media: concentration-dependently and significantly reduced melanin content increases
[3]; L-DOPA as substrate
  Inhibition type: competitive inhibitor; also recorded: L-DOPA (Inhibition Type ^a: Competitive)
[3]; L-DOPA
  Ki: 2450 nM
  Vmax: 0.00497 mM/min
[3]; L-tyrosine as substrate
  Inhibition type: competitive inhibitor; also recorded: L-Tyrosine (Inhibition Type ^a: Competitive)
[3]; L-tyrosine
  Ki: 37.6 nM
  Vmax: 0.0101 mM/min
[4]
  ABTS radical scavenging activity (in words): potently scavenged the ABTS radical
[4]; 734 nm
  ABTS free radical scavenged (%): 75%
[5]
  cytotoxic effect on B16F10 cell viability: Neither compound exhibited a significant cytotoxic effect
[6]
  mRNA expression levels of the three MITF target genes (TRP-1, TRP-2, tyrosinase): significantly and concentration-dependently suppressed
[7]; 10 µM, compared with kojic acid 20 µM
  inhibition of α-MSH/IBMX-induced intracellular melanin increase: more potently inhibited α-MSH/IBMX-induced increases in melanin than kojic acid at 20 µM
[7]; 20 µM, α-MSH/IBMX co-treated cells
  intracellular melanin content, lower than untreated control group: 20%
[7]; 5, 10, 20 µM, α-MSH + IBMX, 48 h
  effect on intracellular melanin content: significantly and concentration-dependently reduced intracellular melanin increases
